# Measurements as given in patent publication US7939530B2, “Treatment of lymphoma using 10-propargyl-10-deazaaminopterin and gemcitabine” (Sloan-Kettering Institute for Cancer Research, priority 2004, dated 2011).
# Several values for one entry are separate records, joined by “and”; a condition that tells them apart may be missing. Equal entries are not always repeated.
# Tests used:
# [1] = tested on: Raji (Burkitt's) cell line; assay: Growth inhibition in vitro (XTT or Alamar blue); assay type: cell-based, human; conditions: 5 day continuous drug exposure
# Experimental: (§1) A PDX preparation prepared in accordance with Example 1 and an MTX preparation were tested for cytotoxicity against a panel of five human lymphoma cell lines. Experiments were performed as described previously. (Sirotnak et al., Cancer Chemother. Pharmacol. 12: 18-25 (1984). In brief, 2.5 to 5×10^3 cells were plated per well in 96-well flat bottom plates. Drug was added in a 0.9% NaCl solution (pH 7.0) over a range of concentrations, and cells were continuously exposed to drug for 5 days. Colorimetric dye (XTT or Alamar blue) was added for an addition period of time (XTT dye, 6 hours, Alamar blue, 24 hours). Each plate was then read on an automated plate reader at 590 nm. The percentage of inhibition was calculated as growth of cells exposed to drug divided by growth of controls (cells incubated with media only). IC50 values were determined as the drug concentrations at which cell growth was inhibited 50% as compared to controls. Experiments were repeated as lest three times. Experiments were also conducted with continuous drug exposures lasting for 3 and 4 days with results similar to the 5 day results.
# [2] = tested on: Hs445 (Hodgkin's disease) cell line; assay: Growth inhibition in vitro (XTT or Alamar blue); assay type: cell-based, human; conditions: 5 day continuous drug exposure
# Experimental: as §1
# [3] = tested on: RL (Transformed follicular) cell line; assay: Growth inhibition in vitro (XTT or Alamar blue); assay type: cell-based, human; conditions: 5 day continuous drug exposure
# Experimental: as §1
# [4] = tested on: human RL (transformed follicular) non-Hodgkin's lymphoma xenografts; assay: Subcutaneous lymphoma xenograft treatment; assay type: in vivo; conditions: MTX 40 mg/kg
# Text: (§2) In order to study the effects of PDX on lymphoma growth in vivo, subcutaneous transplantation models in NOD/SCID mice were generated using three established human lymphoma cell line representative of aggressive transformed FL (RL) and de novo extranodal DLBCL (HT; SKI-DLCL-1) histologies. Six to eight week old non-obsese diabetic severe combined immunodeficient (NOD/SCID) mice (Jackson Laboratories, Bar Harbor, Me.) were sub-lethally irradiated with […] from a gamma source and inoculated with 10×10^6 lymphoma cells via a subcutaneous route. When tumor volumes approached 100 mm^3, mice were divided into three groups, averaging 3-8 mice per group. Mice were treated with normal saline or the maximum tolerated dose (MTD) of MTX (40 mg/kg) or PDX (60 mg/kg) via an intraperitoneal route twice weekly for two weeks (four total doses). […] (Sirotnak, et al., Cancer Chemother. Pharmacol. 12: 26-30 (1984); Sirotnak et al., Cancer Chemother. Pharmacol. 42: 313-318 (1998).
# (§3) Engraftment rates in this experiment ranged from 80 to 90%. Palpable tumors formed under the skin approximately 7-10 days after inoculation and were readily measurable with calipers. Mice with subcutaneous lymphoma growths survived an average of 40-50 days after inoculation.
# [5] = tested on: human SKI-DLCL-1 (de novo diffuse large B cell) non-Hodgkin's lymphoma xenografts; assay: Subcutaneous lymphoma xenograft treatment; assay type: in vivo; conditions: MTX 40 mg/kg
# Text: as §2, §3
# [6] = tested on: human HT (diffuse large B cell) non-Hodgkin's lymphoma xenografts; assay: Subcutaneous lymphoma xenograft treatment; assay type: in vivo
# Text: as §2, §3
# [7] = PDX 60 mg/kg ip twice weekly for two weeks
# [8] = MTX 40 mg/kg, PDX 60 mg/kg ip twice weekly for two weeks
smiles,measurement,setting,value
"C#CCC(Cc1cnc2nc(N)nc(N)c2n1)c1ccc(C(=O)N[C@@H](CCC(=O)O)C(=O)O)cc1 (stereo partly shown) [PDX, 10-Propargyl-10-deazaminopterin]",IC50,[1],2 ± 0.3 nM
same,IC50,[2],1.6 ± 0.8 nM
same,IC50,[3],23 ± 2 nM
same,Complete Regression (no/total),[4]; PDX 60 mg/kg,5 of 9 and 5/9
same,tumor regressions (% of mice),[4]; PDX 60 mg/kg,57%
same,Avg Tumor Diameter (mm ± SE),[4]; [7],2.7 ± 1.1 mm
same,Avg change in Tumor Volume (mm^3 ± SE),[4]; [7],−46 ± 34 mm^3
same,Weight Change (%),[4]; [7],−11.1%
same,Complete Regression (no/total),[5]; PDX 60 mg/kg,3 of 10 and 3/10
same,tumor regressions / complete remissions (% of mice),[5]; PDX 60 mg/kg,30%
same,Avg Tumor Diameter (mm ± SE),[5]; [7],3.5 ± 0.7 mm
same,Avg change in Tumor Volume (mm^3 ± SE),[5]; [7],−81 ± 16 mm^3
same,Weight Change (%),[5]; [7],−1.2%
same,Complete Regression (no/total),"[6]; MTX 40 mg/kg, PDX 60 mg/kg",8 of 9 and 8/9
same,complete tumor regression (% of mice),"[6]; MTX 40 mg/kg, PDX 60 mg/kg",89%
same,Avg change in Tumor Volume (mm^3 ± SE),[6]; [8],−95 ± 0.8 mm^3
same,Weight Change (%),[6]; [8],−8.9%
same,Avg Tumor Diameter (mm ± SE),"[6]; MTX 40 mg/kg, PDX 60 mg/kg, at the nadir of tumor regression",0.5 mm and 0.5 ± 0.3 mm
same,Tumor Regression (%),"[6]; PDX 60 mg/kg, average tumor regression",99%
